{"source": "patent US7341988B2", "about": "“Method of treating influenza with geranyl-geranyl acetone” (Eisai R&D Management Co., Ltd., priority 2001, dated 2008)", "key": {"[1]": {"test_system": "HSP70", "assay_type": "in vivo, BALB/c mice"}, "[2]": {"test_system": "viral nucleoprotein (NP) of PR8", "test": "Viral nucleoprotein (NP) synthesis in the lungs of infected mice, Western blot and EIA", "assay_type": "in vivo, BALB/cN mice", "conditions": "GGA treated groups compared with control group", "text": "(§1) The virus used in the present invention was the influenza A virus, A/PR/8/34 (H1 N1) strain (hereinafter referred to “PR8”); the mice were 6-week old female SPF (specific pathogen-free) BALB/cN mice (Charles River Japan Co., Ltd.); and the cells were A549 cells derived from human alveolar epithelial cell.\n(§2) The mice were randomly divided into the following 4 treatment groups, and tested: (1) Control group; intranasl infection with PR8 (2×10^5 PFU) (2) 150G-PR8; group; after administration of 150 mg/kg of GGA, infected with the same amount of PR8 in the same manner as the control group; (3) 75G-PR8 group; after administration of 75 mg/kg of GGA, infected with the same amount of PR8 in the same manner as the control group; (4) 15G-PR8 group; after administration of 15 mg/kg of GGA, infected with the same amount of PR8 in the same manner as the control group. The aforementioned group (1) refers to the control group, and groups (2) to (4) refer to the GGA treated group prior to infection. The GGA treated groups were orally administered GGA every 12 hours for 3 weeks.\nFIG. 3 indicates the results of the effects of GGA on viral nucleoprotein (called “NP” hereinafter) synthesis in the lungs of the mice of the various groups after infection by an influenza virus according to the present invention. The amount of NP synthesis was measured with Western blot analysis. […]"}, "[3]": {"test_system": "influenza A virus, A/PR/8/34 (H1 N1) strain", "test": "Weight loss in mouse PR8 infection model", "assay_type": "in vivo, BALB/cN mice", "conditions": "GGA treated groups (oral every 12 hours for 3 weeks before infection) except the 75G-PR8 group; control weight loss reaching 30%", "description": "FIG. 1 indicates an improvement trend of clinical infection symptoms caused by administration of GGA in a mouse PR8 infection model according to the present invention. BALC/c mice that used in the present invention were randomly allotted into the following 4 groups: (1) Control group (n=30) is transnasally administered 2×10^5 PFU of A/PR/8/34; the GGA pre-treatment groups were orally administered GGA every 12 hours for 3 weeks in doses of: (2) 150 mg/kg (150G-PR8 group; n=30), (3) 75 mg/kg (75G-PR8 group; n=30), (4) 15 mg/kg (15G-PR8 group; n=30) and were infected with PR8 after 3 weeks in the same manner. The body weights of the mice were measured 1, 2, 3, 4, 7, and 10 days after infection;\nas §1\nFirst, the aforementioned mice were raised in a cage for each 4 mice under clean conditions and allowed free access to sterilized feed and water. […]"}, "[4]": {"test_system": "influenza A virus, A/PR/8/34 (H1 N1) strain", "assay_type": "cell-based", "conditions": "A549 cells"}, "[5]": {"test_system": "influenza A virus, A/PR/8/34 (H1 N1) strain", "test": "Viral replication in the lungs of infected mice, plaque assay using MDCK", "assay_type": "in vivo, BALB/cN mice", "text": "as §1, §2\nFIG. 2 indicates the effects of GGA on viral replication in the lungs of the mice of the various groups after infection by an influenza virus according to the present invention. Here, the assay of virus in the lung was conducted by plaque assay using MDCK."}, "[6]": {"test_system": "M×A genes", "test": "Expression of antiviral gene MxA in PR8-infected A549 cells, northern blot", "assay_type": "cell-based, human", "text": "Studied next were the effects of GGA treatment on the expression of antiviral genes after infection by PR8, and the results are indicated in FIGS. 12 and 13. […] It should be noted that the GAPDH in FIG. 12 was used as a control in the same way as previously described in FIG. 5."}, "[7]": {"test_system": "HSP70", "test": "HSP induction in A549 cells (northern blot, 35S-methionine pulse labeling, western blot)", "assay_type": "cell-based, human"}, "[8]": {"test_system": "interferon-inducible double-stranded RNA activated protein kinase (PKR)", "test": "PKR mRNA expression in A549 cells, RT-PCR", "assay_type": "cell-based, human", "conditions": "β-actin control", "text": "FIG. 13 indicates the results of using RT-PCR to assay the mRNA expression of interferon-inducible double-stranded RNA activated protein kinase (hereinafter referred to “PKR”), which has an antiviral action. […] It should be noted that β-actin in this diagram was used was a control."}, "[9]": {"conditions": "GGA treatment (+), pulse labeling"}}}
{"smiles": "CC(=O)CC/C=C(\\C)CC/C=C(\\C)CC/C=C(\\C)CCC=C(C)C", "note": "[GGA, 6, 10, 14, 18-tetramethyl-5,9, 13, 17-nonadecatetraen-2-one]", "values": [{"measurement": "amount of HSP70 mRNA expressed in the lungs after PR8 infection", "setting": "[1]; […], GAPDH control", "value": "dependent on the amount of GGA administered"}, {"measurement": "expression of HSP70 in the lungs, GGA alone", "setting": "[1]; mouse, in vivo", "value": "induced in a dose dependent manner"}, {"measurement": "NP synthesis in the lungs, Western blot", "setting": "[2]", "value": "suppression of NP synthesis in a dose dependent manner"}, {"measurement": "capacity to synthesize NP after infection with PR8, EIA", "setting": "[2]", "value": "notably reduced"}, {"measurement": "weight loss caused by PR8 infection", "setting": "[3]", "value": "almost no weight loss"}, {"measurement": "HSP70 synthesis in the early period of infection", "setting": "[4]; [9]", "value": "enhancement of HSP70 synthesis was observed"}, {"measurement": "time after infection at which NP synthesis began", "setting": "[4]; [9]", "value": "> 12", "unit": "h"}, {"measurement": "NP synthesis capacity compared to GGA treatment (−)", "setting": "[4]; PR8 infection, pulse labeling", "value": "suppressed"}, {"measurement": "capacity to synthesize viral proteins of PR8 (HA, NP, M1, NS1)", "setting": "[4]; compared to the control", "value": "notably suppressed"}, {"measurement": "duration of HSP70 expression after PR8 infection", "setting": "[4]; densitometric analysis at 3, 6, 12, 24 hours", "value": "up to 12 hours"}, {"measurement": "time after infection up to which expression of NP was prevented", "setting": "[4]; western blot", "value": "up to 12 hours"}, {"measurement": "time after infection at which virus was completely eliminated from the lungs", "setting": "[5]; 75G-PR8 group (75 mg/kg GGA)", "value": 4, "unit": "days"}, {"measurement": "time after infection at which virus was completely eliminated from the lungs", "setting": "[5]; 150G-PR8 group (150 mg/kg GGA)", "value": 3, "unit": "days"}, {"measurement": "growth of virus in the lungs", "setting": "[5]; GGA 150, 75, 15 mg/kg oral every 12 hours for 3 weeks before PR8 infection, vs control", "value": "suppressed in a GGA dose-dependent manner"}, {"measurement": "expression of M×A genes", "setting": "[6]; A549 cells after infection with PR8, GAPDH control", "value": "enhanced"}, {"measurement": "expression of HSP mRNA after PR8 infection", "setting": "[6]; A549 cells after infection with PR8, northern blot", "value": "enhanced"}, {"measurement": "time of peak HSP70 expression after administering GGA", "setting": "[7]; A549 cells, western blot with HSP70 antibodies", "value": 6, "unit": "h"}, {"measurement": "expression of HSP70 mRNA in A549 cells", "setting": "[7]; northern blot, GAPDH control", "value": "induced in a concentration and time dependent manner"}, {"measurement": "expression of PKR mRNA", "setting": "[8]", "value": "enhanced expression"}]}
